Measured values published in publication PMC10296061, “Inhibition of the Mitochondrial Carnitine/Acylcarnitine Carrier by Itaconate through Irreversible Binding to Cysteine 136: Possible Pathophysiological Implications” (Biomolecules, 2023).
Positions count from the first letter of the chain named.

Tests used:
Format in all cases: biochemical
CAC C136A mutant = biological target: T1, CAC C136A mutant (Rattus norvegicus, UniProt P97521, C136A); test: Transport assay in proteoliposomes, CAC mutant C136A; conditions: mutant lacking C136; read-out: IC50 for itaconate inhibition
T1 construct: made in house; host or cells: E. coli C0214
T1 sequence (P97521 1-301 C136A): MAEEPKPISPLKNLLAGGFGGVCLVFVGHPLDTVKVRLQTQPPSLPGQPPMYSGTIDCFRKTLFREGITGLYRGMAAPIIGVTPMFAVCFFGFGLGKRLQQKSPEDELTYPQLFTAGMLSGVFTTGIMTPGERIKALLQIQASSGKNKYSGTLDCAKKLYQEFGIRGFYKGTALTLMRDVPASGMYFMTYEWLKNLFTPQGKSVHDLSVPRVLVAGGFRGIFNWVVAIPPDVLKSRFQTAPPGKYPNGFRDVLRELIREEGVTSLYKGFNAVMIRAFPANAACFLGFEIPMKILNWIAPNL
Procedure: (§1) As previously described, the pMW7-WTratCAC recombinant plasmid was used for over-expressing the rat CAC [22]. The overlap extension method was used to introduce the mutations; in the main time, NdeI and HindIII restriction sites were also added using appropriate primers. The PCR products were purified by the QIAEX II Gel Extraction Kit (QIAGEN) and digested with NdeI and HindIII and then ligated into the pMW7. All mutations were verified by DNA sequencing. The resulting plasmid constructs were transformed into E. coli C0214. Overexpression, inclusion body fraction preparation, and purification of the CAC proteins were performed as previously described. […]
(§2) To test the transport activity of the CAC, 550 μL of proteoliposomes was passed through a Sephadex G-75 column to remove the external substrate. […] Transport rates were measured in 10 min, i.e., within the initial linear range of the time course, at 25 °C. After terminating the transport reaction, the external substrate was removed by chromatography on the Sephadex G-75 column, and the intraliposomal radioactivity was measured. […]
Figure 3 Identification of residue responsible for itaconate inhibition. […] Transport activity of the WT (○), C136A (●), C155A (Δ), C23V/C58V/C89S/C155V/C283S (▲), and C23V/C58V/C89S/C136V/C155V/C283S (□) was measured by adding 0.1 mM [^3H]carnitine after treatment by itaconate at the indicated concentrations. […]

[1] = biological target: T2, CAC C23V/C58V/C89S/C136V/C155V/C283S (C-less) mutant (Rattus norvegicus, UniProt P97521, C136V/C155V/C23V/C283S/C58V/C89S); test: Transport assay in proteoliposomes, C-less CAC mutant
T2 construct: made in house; host or cells: E. coli C0214
T2 sequence (P97521 1-301 C23V/C58V/C89S/C136V/C155V/C283S): T1 sequence (P97521 1-301 C136A) with C23V, C58V, C89S, A136V, C155V, C283S
Procedure: As previously described, the pMW7-WTratCAC recombinant plasmid was used for over-expressing the rat CAC [22]. The overlap extension method was used to introduce the mutations; in the main time, NdeI and HindIII restriction sites were also added using appropriate primers. The PCR products were purified by the QIAEX II Gel Extraction Kit (QIAGEN) and digested with NdeI and HindIII and then ligated into the pMW7. All mutations were verified by DNA sequencing. The resulting plasmid constructs were transformed into E. coli C0214. Overexpression, inclusion body fraction preparation, and purification of the CAC proteins were performed as previously described.
As previously described, recombinant CAC (WT and mutants) and ORC1 proteins were used for proteoliposome formation. For experiments with native CAC, ORC1, or ANT proteins, rat liver mitochondria, or HeLa cell mitochondria, the latter for the CAC alone, were first purified using the standard procedure of cell disruption and differential centrifugation. Then proteins were extracted using 3% Triton X-100 and reconstituted as described for the recombinant proteins. The concentration of intraliposomal carnitine and ornithine was 15 mM and 30 mM, respectively, in all samples.
To test the transport activity of the CAC, 550 μL of proteoliposomes was passed through a Sephadex G-75 column to remove the external substrate. Six hundred μL of the turbid eluate was collected, divided into samples of 100 μL each, and used for transport measurement by the inhibitor-stop method. Transport was started by adding 0.1 mM [^3H]carnitine ([^3H]ornitine or [^3H]ATP) to proteoliposome samples and stopped with 1.5 mM NEM (N-ethylmaleimide) at the indicated time interval. In the control samples, NEM was added with the labeled substrate at time zero. Transport rates were measured in 10 min, i.e., within the initial linear range of the time course, at 25 °C. After terminating the transport reaction, the external substrate was removed by chromatography on the Sephadex G-75 column, and the intraliposomal radioactivity was measured. The experimental values were corrected by subtracting the controls.
Figure 3 Identification of residue responsible for itaconate inhibition. (a) Dose–response analysis of the Cys mutants of CAC for the inhibition by itaconate was performed. Transport activity of the WT (○), C136A (●), C155A (Δ), C23V/C58V/C89S/C155V/C283S (▲), and C23V/C58V/C89S/C136V/C155V/C283S (□) was measured by adding 0.1 mM [^3H]carnitine after treatment by itaconate at the indicated concentrations. Transport activity (µmol/10 min/mg) is: WT 1.80 ± 0.31; C136A 0.91 ± 0.10; C155A 1.00 ± 0.17; C23V/C58V/C89S/C155V/C283S 1.02 ± 0.159; C23V/C58V/C89S/C136V/C155V/C283S 0.71 ± 0.22. (b) Dose–response analysis of proteoliposomes reconstituted native (○) or recombinant ORC (●) incubated with itaconate at the indicated concentrations. Transport activity was measured by adding 0.1 [^3H]ornithine, respectively, as described in Materials and Methods. The data are expressed as a percent of the controls (no addition of itaconate) and are means ± SD from three independent experiments.
Figure 4 Lysine contribution to CAC inhibition by itaconate. Protection of PLP (pyridoxal phosphate) from inhibition by itaconate on C-less CAC was carried out. C-less mutant (i.e., C23V/C58V/C89S/C136V/C155V/C283S) was reconstituted into proteoliposomes and treated or not treated with 30 mM PLP for 10 min (“Contr” or “PLP” column, respectively). […]

CAC K135A mutant = biological target: T3, CAC K135A mutant (Rattus norvegicus, UniProt P97521, K135A); test: Transport assay in proteoliposomes, CAC mutant K135A; conditions: read-out: IC50 for itaconate inhibition
T3 construct: made in house; host or cells: E. coli C0214
T3 sequence (P97521 1-301 K135A): T1 sequence (P97521 1-301 C136A) with K135A, A136C
Procedure: as §1, §2
Figure 9 Dose–response analysis of inhibition by itaconate of WT protein (○) and the K135A (●) mutant was performed by measuring the transport activity with or without itaconate treatment. […] The data are expressed as a percent of the own controls and are means ± SD from three independent experiments.

Q: What does the source list for `C=C(CC(=O)O)C(=O)O` [itaconate]?
A: IC50 (CAC C136A mutant): 15 ± 2.1 mM; effect on PLP pretreated (protected) C-less CAC ([1]; 15 mM itaconate added to 30 mM PLP pretreated protein, reactants removed by G-75): inefficacy; effect on C-less CAC transport ([1]; 15 mM itaconate, no PLP preincubation): inhibited; IC50 ([1]; C-less mutant, read-out: IC50 for itaconate inhibition): 15 ± 2.4 mM; IC50 (CAC K135A mutant): 16 ± 2.6 mM
